Measured values from patent US9513294B2, “Megastokes amino-triazolyl-BODIPY compounds and applications to live neuron staining and human serum albumin FA1 drug site probing” (National University of Singapore, priority 2012, dated 2016).
Values belong to the compound of their own block, whether it stands above or below them.

Legend:
[1] = Quantum yield measurements versus Acridine Yellow in EtOH; format: physicochemical; settings: for φ (quantum yield): excitation 460 nm; for φ (%): quantum yield
Experimental: (§1) ^1H-NMR, ^19F-NMR and ^13C-NMR spectra were recorded on Bruker ACF300 (300 MHz), DPX300 (300 MHz) and AMX500 (500 MHz) spectrometers. High resolution mass spectra (ESI) were obtained on a Finnigan/MAT 95XL-T spectrometer. Spectroscopic and quantum yield data were measured on a SpectraMax M2 spectrophotometer (Molecular Devices). Data analysis was performed using GraphPrism 5.0. Analytical characterization was performed on a HPLC-MS (Agilent-1200 series) with a DAD detector and a single quadrupole mass spectrometer (6130 series) with an ESI probe. Analytical HPLC method: eluents, A: H2O (0.1% HCOOH), B: CH3CN (0.1% HCOOH), gradient 5% B to 95% B (10 min). Reverse-phase Phenomenex C18 Luna column (4.6×50 mm^2, 3.5 […]), flow rate: 1 mL/min.
Quantum yields were calculated by measuring the integrated emission area of the fluorescent spectra and comparing to the area measured for Acridine Yellow in EtOH when excited at 460 nm (Φfluorescence^AcridineYellow=0.47). Quantum yields for the amino-triazolyl-BODIPYs were calculated using the equation below, where F represents the area of fluorescent emission, η is the refractive index of the solvent, and Abs is absorbance at the excitation wavelength selected for standards and samples. Emission was integrated between 510 and 700 nm.

[2] = Absorbance and fluorescence emission spectra (SpectraMax M2); format: physicochemical; settings: for λmax Abs. (nm) / λmax Em. (nm): MKAC compound library; for λmax Abs. (nm) / λmax Absorp. (nm): absorbance maximum; for λmax Em. (nm) / λmax Emission (nm): fluorescence emission maximum; for λmax Absorp. (nm) / λmax Emission (nm): MKCA compound library
Experimental: BDC-8 (Blue): absorbance λmax=473 nm, emission λmax=585 nm; MK101-8 (Green): absorbance λmax=474 nm, emission λmax=563 nm; MKHA374-48 (Yellow): absorbance λmax=468 nm, λem=557 nm. The corresponding spectra of a reported BODIPY (BD-27; Red) are also included for comparison: absorbance λmax=551 nm, emission λmax=568 nm. The structures of BDC-8, MK101-8, MKHA374-48 and BD-27 are also depicted.
as §1

Structure (SMILES): CC(=O)Nc1ccc(C2=C3C=CC(N4CC(C)OC(C)C4)=[N+]3[B-](F)(F)n3c2ccc3-n2cc(CC3CCCCC3)nn2)cc1 (centres unmarked) [MKAC20-8]
- φ (%) ([1]; MKAC compound library): 4.98%
- λmax Abs. (nm) [2]: 466 nm
- λmax Em. (nm) [2]: 583 nm

Structure (SMILES): Nc1ccc(C2=C3C=CC(N4CCCCC4)=[N+]3[B-](F)(F)n3c2ccc3-n2cc(-c3cc(C(F)(F)F)cc(C(F)(F)F)c3)nn2)cc1 [BDC-30]
- φ (quantum yield) ([1]; BDC library, Table 2): 0.57%
- λmax Absorp. ([2]; BDC library, Table 2): 466 nm
- λmax Emission ([2]; BDC library, Table 2): 547 nm

Structure (SMILES): CCCC(C)c1cn(-c2ccc3n2[B-](F)(F)[N+]2=C(NCc4ccccc4OCC)C=CC2=C3c2ccc(NC(=O)CCl)cc2)nn1 (centres unmarked) [MKCA103-3]
- φ (%) ([1]; MKCA compound library): 23.61%
- λmax Absorp. (nm) [2]: 466 nm
- λmax Emission (nm) [2]: 562 nm

Structure (SMILES): Nc1ccc(C2=C3C=CC(N4CCCCC4)=[N+]3[B-](F)(F)n3c2ccc3-n2cc(CC3CCCC3)nn2)cc1 [BDC-7]
- φ (quantum yield) ([1]; BDC library, Table 2): 0.23%
- λmax Absorp. ([2]; BDC library, Table 2): 476 nm
- λmax Emission ([2]; BDC library, Table 2): 573 nm

Structure (SMILES): Nc1ccc(C2=C3C=CC(N4CCCCC4)=[N+]3[B-](F)(F)n3c2ccc3-n2cc(CC3CCCCC3)nn2)cc1 [BDC-8]
- φ (quantum yield) ([1]; BDC library, Table 2): 0.24%
- λmax Absorp. ([2]; BDC library, Table 2): 473 nm
- λmax Emission ([2]; BDC library, Table 2): 585 nm
- absorbance λmax ([2]; FIG. 2 normalized spectra): 473 nm
- emission λmax ([2]; FIG. 2 normalized spectra): 585 nm

Structure (SMILES): CC(=O)Nc1ccc(C2=C3C=CC(N4CCCCC4)=[N+]3[B-](F)(F)n3c2ccc3-n2cc(-c3cccc(C)c3)nn2)cc1 [BDCAC-45]
- φ (quantum yield) ([1]; BDCAC library, Table 3): 3.2%
- λmax Absorp. ([2]; BDCAC library, Table 3): 463 nm
- λmax Emission ([2]; BDCAC library, Table 3): 551 nm

Structure (SMILES): O=C(CCl)Nc1ccc(C2=C3C=CC(N4CCCCC4)=[N+]3[B-](F)(F)n3c2ccc3-n2cc(-c3cccc(F)c3)nn2)cc1 [BDCCA-31]
- φ (quantum yield) ([1]; BDCCA library, Table 4): 1.0%
- λmax Absorp. ([2]; BDCCA library, Table 4): 462 nm
- λmax Emission ([2]; BDCCA library, Table 4): 568 nm

Structure (SMILES): CCOc1ccccc1CNC1=[N+]2C(=C(c3ccc(NC(=O)CCl)cc3)c3ccc(-n4cc(CN(C)Cc5ccccc5)nn4)n3[B-]2(F)F)C=C1 [MKCA103-18]
- φ (%) ([1]; MKCA compound library): 24.66%
- λmax Absorp. (nm) [2]: 462 nm
- λmax Emission (nm) [2]: 561 nm

Other lines, results leading:

- φ (quantum yield) ([1]; BDC library, Table 2): 0.18%
- λmax Absorp. ([2]; BDC library, Table 2): 471 nm
- λmax Emission ([2]; BDC library, Table 2): 580 nm
Structure (SMILES): CN(Cc1ccccc1)Cc1cn(-c2ccc3n2[B-](F)(F)[N+]2=C(N4CCCCC4)C=CC2=C3c2ccc(N)cc2)nn1 [BDC-18]

- φ (quantum yield) ([1]; BDCCA library, Table 4): 0.8%
- λmax Absorp. ([2]; BDCCA library, Table 4): 463 nm
- λmax Emission ([2]; BDCCA library, Table 4): 589 nm
Structure (SMILES): COc1cc(OC)cc(-c2cn(-c3ccc4n3[B-](F)(F)[N+]3=C(N5CCCCC5)C=CC3=C4c3ccc(NC(=O)CCl)cc3)nn2)c1 [BDCCA-14]

- φ (%) ([1]; MKAC compound library): 3.81%
- λmax Abs. (nm) [2]: 461 nm
- λmax Em. (nm) [2]: 569 nm
Structure (SMILES): CCCC(C)c1cn(-c2ccc3n2[B-](F)(F)[N+]2=C(N4CCCC4)C=CC2=C3c2ccc(NC(C)=O)cc2)nn1 (racemic) [MKAC215-3]

- φ (quantum yield) ([1]; BDCAC library, Table 3): 1.3%
- λmax Absorp. ([2]; BDCAC library, Table 3): 465 nm
- λmax Emission ([2]; BDCAC library, Table 3): 574 nm
Structure (SMILES): CC(=O)Nc1ccc(C2=C3C=CC(N4CCCCC4)=[N+]3[B-](F)(F)n3c2ccc3-n2cc(-c3ccc(-c4ccccc4)cc3)nn2)cc1 [BDCAC-23]

- φ (quantum yield) ([1]; BDCAC library, Table 3): 0.8%
- λmax Absorp. ([2]; BDCAC library, Table 3): 468 nm
- λmax Emission ([2]; BDCAC library, Table 3): 581 nm
Structure (SMILES): CCCCCCCCc1cn(-c2ccc3n2[B-](F)(F)[N+]2=C(N4CCCCC4)C=CC2=C3c2ccc(NC(C)=O)cc2)nn1 [BDCAC-44]

- φ (quantum yield) ([1]; MK library, Table 5): 0.50%
- λmax Absorp. ([2]; MK library, Table 5): 473 nm
- λmax Emission ([2]; MK library, Table 5): 563 nm
Structure (SMILES): CCCc1cn(-c2ccc3n2[B-](F)(F)[N+]2=C(NCc4cc(OC)ccc4OC)C=CC2=C3c2ccc(N)cc2)nn1 [MK181-48]

- φ (%) ([1]; MKCA compound library): 36.82%
- λmax Absorp. (nm) [2]: 464 nm
- λmax Emission (nm) [2]: 563 nm
Structure (SMILES): CCOc1ccccc1CNC1=[N+]2C(=C(c3ccc(NC(=O)CCl)cc3)c3ccc(-n4cc(CCc5ccccc5)nn4)n3[B-]2(F)F)C=C1 [MKCA103-19]

- φ (quantum yield) ([1]; BDCAC library, Table 3): 0.9%
- λmax Absorp. ([2]; BDCAC library, Table 3): 463 nm
- λmax Emission ([2]; BDCAC library, Table 3): 569 nm
Structure (SMILES): CC(=O)Nc1ccc(C2=C3C=CC(N4CCCCC4)=[N+]3[B-](F)(F)n3c2ccc3-n2cc(-c3cccc(F)c3)nn2)cc1 [BDCAC-31]

- φ (quantum yield) ([1]; BDCAC library, Table 3): 2.7%
- λmax Absorp. ([2]; BDCAC library, Table 3): 463 nm
- λmax Emission ([2]; BDCAC library, Table 3): 537 nm
Structure (SMILES): CC(=O)Nc1ccc(C2=C3C=CC(N4CCCCC4)=[N+]3[B-](F)(F)n3c2ccc3-n2cc(-c3ccc(OC(F)(F)F)cc3)nn2)cc1 [BDCAC-15]

- φ (%) ([1]; MKCA compound library): 19.35%
- λmax Absorp. (nm) [2]: 464 nm
- λmax Emission (nm) [2]: 566 nm
Structure (SMILES): COc1ccc(OC)c(CNC2=[N+]3C(=C(c4ccc(NC(=O)CCl)cc4)c4ccc(-n5cc(C6CC6)nn5)n4[B-]3(F)F)C=C2)c1 [MKCA181-4]
